# Experiment: Solubility in water and solvents
# Type: physicochemical
# Settings: for Solubilités : éthanol: ethanol; for Solubilités : propylène glycol: propylene glycol; for Solubilités : eau: result in words
SMILES,Solubilités : diméthyl sulfoxyde (DMSO),Solubilités : éthanol,Solubilités : propylène glycol,Solubilités : eau (water),Solubilités : DMA (DMA) [%],"solubility (water, read-out: Solubilités : eau) [mg/mL]"
"CCOC(=O)c1ccc(-c2ccccc2Cl)cc1 [Exemple 1, chloro-2' biphényl-4 carboxylate d'éthyle]",20%,5%,1%,insoluble,,
"CC(C)OC(=O)c1ccc(-c2ccccc2Cl)cc1 [Exemple 2, chloro-2' biphényl-4 carboxylate d'isopropyle]",10%,2%,1%,insoluble,,
"CCCCCCCCOC(=O)c1ccc(-c2ccccc2Cl)cc1 [Exemple 3, chloro-2' biphényl-4 carboxylate de n-octyle]",20%,5%,"0,1%",insoluble,,
"CCCCCCCCCCCCCCCCOC(=O)c1ccc(-c2ccccc2Cl)cc1 [Exemple 4, chloro-2' biphényl-4 carboxylate de n-hexadecyle]","0,1%","0,5%","0,1%",insoluble,1,

# Second part, the molecule after the results:
Solubilités : diméthyl sulfoxyde (DMSO),Solubilités : éthanol,Solubilités : propylène glycol,Solubilités : eau (water),Solubilités : DMA (DMA) [%],"solubility (water, read-out: Solubilités : eau) [mg/mL]",SMILES
20%,2%,"0,1%",insoluble,,,"CC1CC(OC(=O)c2ccc(-c3ccccc3Cl)cc2)CC(C)(C)C1 (stereo not drawn) [Exemple 5, chloro-2^1 biphényl-4 carboxylatede triméthyl-3-3-5 clohexyle]"
20%,2%,"0,2%",Insoluble,,,"O=C(OCc1ccccc1)c1ccc(-c2ccccc2Cl)cc1 [Exemple 6, chloro-2' biphényl-4 carboxylate de benzyle]"
12%,,,,,100,"CN(C)CCOC(=O)c1ccc(-c2ccccc2Cl)cc1 [Exemple 9, chloro-2' biphényl-4 carboxylate de diméthylamino-2 éthyle, chlorhydrate]"
12%,,"0,1%",insoluble,,,"O=C(OCc1cccnc1)c1ccc(-c2ccccc2Cl)cc1 [Exemple 10, chloro-2' biphényl-4 carboxylate de pyridyl-3 méthyle, chlorhydrate]"

# Reference: patent publication EP0057141A2, “Esters of halogene-biphenylcarboxylates, method of preparation and their application as medicines” (PIERRE FABRE S.A., priority 1981, dated 1982)
